{"source": "patent US20030215462A1", "about": "“Use of UGT inhibitors to increase bioavailability” (priority 2001, published 2003)", "assay_type_in_all_cases": "biochemical", "key": {"[1]": {"test_system": "T1, UGT enzymes of human liver microsomes", "T1 construct": "residual metabolism (percentage of control), labetalol LG1; other: labetalol 50 μM; residual metabolism (percentage of control), labetalol LG1; residual metabolism (percentage of control), labetalol LG2; inhi", "assay": "Inhibition of labetalol glucuronidation (LG1, LG2) in human liver microsomes", "details": "labetalol 50 μM; inhibitor 100 μM", "protocol": "Supernatants were analyzed by HPLC with fluorescence detection.\nCompounds were eluted using a binary solvent gradient system where solvent A was 5:5:90 tetrahydrofuran-acetonitrile-(NH4)2HPO4 50 mM, while solvent B was 25:25:50 tetrahydrofuran-acetonitrile-(NH4)2HPO4 50 mM. Solvent flow rate was 0.75 ml/min and the column temperature was ambient. […] Labetalol and metabolites were measured by fluorescence detection using a Jasco model FP920 detector. Excitation and emission wavelengths were 370 nm 418 nm respectively. Retention times for salicylamide internal standard and labetalol were 6.6 min and 15.0 min respectively."}, "[2]": {"test_system": "UGT enzymes of human liver microsomes", "assay": "Inhibition of raloxifene glucuronidation (G1, G2) in human liver microsomes", "details": "inhibitor 500 μM, raloxifene 50 μM, human liver microsomes 250 μg/ml, 15 min", "text": "Compounds were eluted using a binary solvent gradient system. […] Solvent B was methanol. […] Detection was at 280 nm."}, "[3]": {"test_system": "T2, UGT enzymes of human liver microsomes", "T2 construct": "percentage of control metabolism, 7-HFC glucuronidation; percentage of control metabolism, 7-HFC glucuronidation", "assay": "Inhibition of 7-HFC glucuronidation in human liver microsomes", "details": "7-HFC 50 μM, human liver microsomes 100 μg/ml, 15 min"}, "[4]": {"biological_target": "T3, UGT enzymes of human liver microsomes (Homo sapiens, UniProt P16662)", "T3 construct": "residual metabolism (percentage of control), zidovudine glucuronidation; other: liver lot 062101; residual metabolism (percentage of control), zidovudine glucuronidation; residual metabolism (percentage of control)", "T3 sequence (P16662 1-529)": "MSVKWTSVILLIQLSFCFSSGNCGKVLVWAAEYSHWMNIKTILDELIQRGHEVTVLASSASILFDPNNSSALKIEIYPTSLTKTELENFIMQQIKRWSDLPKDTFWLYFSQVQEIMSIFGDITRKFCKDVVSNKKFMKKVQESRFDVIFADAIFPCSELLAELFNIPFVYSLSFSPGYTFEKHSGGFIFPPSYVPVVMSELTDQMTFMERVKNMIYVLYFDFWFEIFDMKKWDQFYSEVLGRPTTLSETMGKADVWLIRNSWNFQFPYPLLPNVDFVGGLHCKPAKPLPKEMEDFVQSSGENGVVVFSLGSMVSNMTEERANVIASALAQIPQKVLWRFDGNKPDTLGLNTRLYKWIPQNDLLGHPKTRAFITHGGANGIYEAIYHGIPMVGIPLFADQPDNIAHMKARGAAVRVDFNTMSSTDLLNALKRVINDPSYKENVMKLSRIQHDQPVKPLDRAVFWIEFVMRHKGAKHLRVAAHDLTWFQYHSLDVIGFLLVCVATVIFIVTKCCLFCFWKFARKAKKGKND", "assay": "Inhibition of zidovudine glucuronidation in human liver microsomes", "details": "liver lot 062101; inhibitor 500 μM", "protocol": "Compounds were eluted using a binary solvent gradient system where solvent A was dilute phosphoric acid (pH 3) and solvent B was acetonitrile.\nStandardized incubations utilized 500 μM zidovudine substrate, 1 mg/ml microsomal protein, 5 mM UDPGA and a 30 min incubation time. […] Int."}}, "data": [{"smiles": "Oc1cc(O)c2c(c1)O[C@H](c1cc(O)c(O)c(O)c1)[C@H](O)C2", "note": "[Epigallocatechin]", "values": [{"measurement": "residual metabolism (percentage of control), labetalol LG1", "setting": "[1]", "result": "96 (7) %"}, {"measurement": "residual metabolism (percentage of control), labetalol LG2", "setting": "[1]", "result": "87 (5) %"}, {"measurement": "% of control metabolism (SD, n = 3), raloxifene glucuronide G1", "setting": "[2]; G1", "result": "65 (4) %"}, {"measurement": "% of control metabolism (SD, n = 3), raloxifene glucuronide G2", "setting": "[2]; G2", "result": "79 (4) %"}, {"measurement": "% of control metabolism (SD, n = 3), 7-HFC glucuronidation", "setting": "[3]; inhibitor 100 μM", "result": "77 (1) %"}, {"measurement": "% of control metabolism (SD, n = 3), 7-HFC glucuronidation", "setting": "[3]; inhibitor 200 μM", "result": "90 (1) %"}, {"measurement": "% of control metabolism (SD, n = 3), 7-HFC glucuronidation", "setting": "[3]; inhibitor 500 μM", "result": "81 (4) %"}, {"measurement": "residual metabolism (percentage of control), zidovudine glucuronidation", "setting": "[4]", "result": "90 (3) %"}]}]}
